One series concerns C26 colon tumor. The settings on record: days 3-7, 10-14.
Series [1] deals with LC-12 squamous cell lung carcinoma tumor. The settings on record: for tumor growth substantially inhibited for (FIG. 2): controls Day 10.
[2] abbreviates: Table 3 study, Xeloda 500 mg/kg/day alone.
The mark [3] stands for this setting: Table 3 study, Xeloda 750 mg/kg/day alone.
The mark [4] stands for this setting: Table 4 study, Xeloda 500 mg/kg/day alone.
The mark [5] stands for this setting: Table 4 study, Xeloda 750 mg/kg/day alone.
[6] abbreviates: Gemcitabine 80 mg/kg/day alone, days 11, 14, 17, 20.
The mark [7] stands for this setting: Gemcitabine 160 mg/kg/day alone, days 11, 14, 17, 20.
[8] abbreviates: Cisplatin 1 mg/kg/day alone, days 11-15 (first line, r11).
The mark [9] stands for this setting: Cisplatin 1 mg/kg/day alone, days 11-15 (second line, r12).

The values below come from US6469058B1 (priority 1998, dated 2002).

Read-outs that look alike come from different tables or passages of the source.

Regarding `CCCCCOC(=O)Nc1nc(=O)n([C@@H]2O[C@H](C)[C@@H](O)[C@H]2O)cc1F` [Xeloda, 5′-deoxy-5-fluoro-N-[(pentyloxy)carbonyl]-cytidine, reference compound], the “% Tumor free” value with C26 colon tumor (setting [2]) is on record as 2/10; with C26 colon tumor (setting [3]), 3/10; in the series on C26 colon tumor (Table 3 study, Xeloda 750 mg/kg/day alone, listed as capecitabine), 3 out of 10; in the series with C26 colon tumor (setting [4]) it was 0/10; in the series on C26 colon tumor (setting [5]) it was 1/10. In addition, the “Net Log10 Kill” value in the series with C26 colon tumor (setting [2]) was found to be 0.2; in the series on C26 colon tumor (setting [3]) it was 0.8; in the series on C26 colon tumor (setting [4]), 0.6; with C26 colon tumor (setting [5]) it was 1.3. The “T − C” value in the series on C26 colon tumor (setting [2]) is given as 13.8 days; in the series on C26 colon tumor (setting [3]) it was 20.7 days; in the series on C26 colon tumor (setting [4]), 15.2 days; in the series on C26 colon tumor (setting [5]) it was 20.4 days. Also, the “Toxic Deaths” value is listed as 0/10 with C26 colon tumor (setting [2]), 1/10 in the series on C26 colon tumor (setting [3]), 0/10 in the series on C26 colon tumor (setting [4]) and 0/10 with C26 colon tumor (setting [5]).
As for `Nc1ccn([C@@H]2O[C@H](CO)[C@@H](O)C2(F)F)c(=O)n1` [Gemcitabine, 2′-deoxy-2′,2′-difluoro-cytidine, reference compound], in series [1] (40 mg/kg IP on Days 10, 13, 16, 19), the “tumor growth substantially inhibited for (FIG. 2)” value came out at 25 days. In addition, the “tumor growth substantially inhibited for (FIG. 2)” value in series [1] (80 mg/kg IP on Days 10, 13, 16, 19) was “about 32 days”. In series [1] (setting [6]), the “% Weight Change” value is listed as “+1%”, the CR was 1/6, the “Net Log10 Kill” value was 0.5 and the PR is 0/6. For the same molecule, in series [1] (setting [6]), the “T − C” value stood at 15.4 days and the “Toxic Deaths” value is 0/6. In series [1] (setting [7]), the “% Weight Change” value is −3%, the CR is on record as 0/6, the “Net Log10 Kill” value was found to be 1.2 and the PR is reported as 1/6. In series [1] (setting [7]), the “T − C” value turned out to be 24.0 days and the “Toxic Deaths” value is 0/6.
For `N.N.[Cl][Pt][Cl]` [Cisplatin, cis-diaminodichloroplatinum, reference compound], in series [1] (setting [8]), the “% Weight Change” value was “+13%”, the CR is reported as 0/10, the “Net Log10 Kill” value is on record as −0.1 and the PR is 0/10. In addition, in series [1] (setting [8]), the “T − C” value is reported as 2.6 days. For the same molecule, in series [1] (setting [9]), the “% Weight Change” value is “+12%”, the CR is listed as 0/10, the “Net Log10 Kill” value is −0.1 and the PR is 0/10. Moreover, the “T − C” value in series [1] (setting [9]) was 2.4 days. Moreover, in series [1] (cisplatin alone at 2 mg/kg/day), the T-C came to 2.4 and the complete responses entry is listed as “failed to cause any complete responses”.
